Format in all cases: in vitro ADME
The nature of data set [1]: In vitro equilibrium dialysis (RED) protein binding, rat brain homogenate. To be noted: male, Sprague-Dawley, rat, pH 7.4. How it is done:
(§1) Cilnidipine was tested by PsychoGenics using standard methodology in 96-well RED (Rapid Equilibrium Dialysis) plates from Thermo Fisher Scientific. Male Sprague-Dawley plasma and brain were obtained from BioIVT to provide the required protein matrix. Plasma was used undiluted, and brain homogenate was diluted 3 to 1 with PBS, pH 7.4. The protein matrix was spiked with the test compound dissolved in DMSO to achieve a 10 μM solution. Three chambers were used to allow for triplicate measures with a final DMSO concentration of <1% in each. The dialysate compartments of the 96-well dialysis chamber was loaded with PBS, pH 7.4 and the sample side was loaded with equal volume of the spiked protein matrix. The dialysis plate was then sealed and incubated at 37° C. for 4 h. After the incubation, samples were taken from each compartment. The buffer side was diluted with the appropriate matrix (plasma or brain homogenate) and the protein matrix side diluted with phosphate buffer. Resultant samples were then crashed in acetonitrile, centrifuged and the supernatant mixed with an aqueous solution providing samples for UPLC-MS/MS analysis. […] This control sample served as the basis for the determination of recovery. […] Samples were analyzed by UPLC-MS/MS using […] (MRM). The UPLC conditions consisted of a binary LC pump with autosampler, an InertSustain column (C18 column, 2.1×50 mm), utilizing gradient elution. The peak areas of the test compound in the buffer and test samples were used to calculate percent binding and recovery according to the following formulas: […]
(§2) The recovery determination serves as an indicator of reliability of the calculated protein binding value.
(§3) The characterization of protein binding is defined using the following ranges:
(§4) • Low 0 to 50% • Moderate 50 to 90% • High 90 to 99% • Very High>99%
For orientation: Equilibrium dialysis compares concentrations on both sides of a semipermeable membrane.

The nature of data set [2]: In vitro equilibrium dialysis (RED) protein binding, rat plasma. To be noted: male, Sprague-Dawley, pH 7.4. How it is done: as §1, §2, §3, §4
Data set [3] concerns rat brain homogenate proteins. Put plainly: In vitro equilibrium dialysis (RED) protein binding, rat brain homogenate. To be noted: male, Sprague-Dawley, rat, brain homogenate, 4 h, 10 μM, pH 7.4. How it is done: as §1, §2, §3, §4
The test system of a further data set is rat plasma proteins. The data set can be described thus: In vitro equilibrium dialysis (RED) protein binding, rat plasma. To be noted: male, Sprague-Dawley, plasma, 4 h, 10 μM, pH 7.4. How it is done:
as §1, §2, §3, §4

The record followed here is patent publication US20240358693A1, “METHODS OF TREATING PAIN” (Aisa Pharma, Inc., priority 2023, published 2024).

Molecules are shown by their SMILES.

In the case of `C=C[C@H]1C[N@@]2CC[C@H]1C[C@@H]2[C@@H](O)c1ccnc2ccc(OC)cc12` [quinidine], the recovery at 4 h, 10 μM was determined as 125 ± 1.54% in data set [1] and 93.7 ± 3.89% in data set [2].
The fraction unbound is free concentration divided by total concentration. Consider `CC(=O)CC(c1ccccc1)c1c(O)c2ccccc2oc1=O` (centres unmarked) [warfarin], for which the “Unbound (%)” value is given as 82.7 ± 4.98% in data set [3] and 0.8 ± 0.02% in the data set on rat plasma proteins. The results for the fraction unbound at 4 h, 10 μM in data set [1] (brain homogenate) and in data set [2] (plasma) were 0.827 and 0.008, respectively. Moreover, the recovery at 4 h, 10 μM in data set [1] was found to be 132 ± 0.57%; in data set [2], 112.7 ± 0.76%.
